Assays:
[1] = system: purified CD14+ cells; assay: Cytokine production by purified CD14+ cells (ELISA of supernatants, 36 hrs); format: cell-based, human
Procedure: Circulating mononuclear cells (MNC) are isolated by density gradient (Ficoll-Hypaque) using buffy coats from 14 normal donors (Servizio Immunotrasfusionale e terapie cellulari, Azienda Ospedaliera Universitaria A. Meyer, Firenze). 200×10^6 MNC are separated by the use of a commercial kit (CD14 isolation kit, Miltenyi) by the addition of 400 μl anti-CD14 monoclonal antibody bound to iron beads followed by isolation on magnetic columns (LS column). 50×10^6 monocytes are recovered by positive selection and are extensively washed with calcium and magnesium-free sterile PBS and then seeded in complete medium plus 10% foetal calf serum in 24 flat bottomed plates at the concentration of 1×10^6/ml. […] The plates are incubated for 36 hrs at 37° C. in 5% CO2 humidified atmosphere and the supernatants are collected after centrifugation at 1200 rpm, aliquoted and then stored at −20° C. up to the assay. […]
(§1) For the determination of cytokines and chemokines of the innate immunity, commercial ELISAs have been used: IL-12p40 (Cytoscreen, Biosource Int, Camarillo, Calif.), IFN-alfa (Cytoscreen), TNF-alfa (Cytoscreen), IL-10 (Pharmingen), IL-6 and CXCL10 (R&D System). 100 μl/well of single supernatants are incubated in flat bottomed plates as specified by the productors and the amounts of the single cytokines are expressed as pg/ml on the basis of a reference curve by using recombinant cytokines.

[2] = system: purified BDCA4+ cells; assay: Cytokine production by purified BDCA4+ cells (plasmacytoid dendritic cells), ELISA; format: cell-based, human
Procedure: The preparation of purified BDCA4+ cells has been obtained in a similar way starting from MNC of buffy coats of the same 14 healthy donors. […] By positive selection 5×10^6 plasmacytoid dendritic cells (PDCs) are recovered, extensively washed with calcium and magnesium-free sterile PBS and seeded in complete medium plus 10% foetal calf serum in 24-flat bottomed plates at the concentration 1×10^6/ml. […] The plates are incubated for 36 hrs at 37° C. in 5% CO2 humidified atmosphere and the supernatants are collected after centrifugation at 1200 rpm, aliquoted and then stored at −20° C. up to the assay. […]
as §1

[3] = target: T1, human TLR7 (Homo sapiens, UniProt Q9NYK1); assay: TLR7 activation, NF-kB luciferase reporter in transfected HEK293 cells; format: cell-based; settings: human TLR7-encoding plasmid
T1 construct: expressed in transfected cells; host or cells: HEK293 (transient Nucleofection, Amaxa)
T1 sequence (Q9NYK1 27-1049): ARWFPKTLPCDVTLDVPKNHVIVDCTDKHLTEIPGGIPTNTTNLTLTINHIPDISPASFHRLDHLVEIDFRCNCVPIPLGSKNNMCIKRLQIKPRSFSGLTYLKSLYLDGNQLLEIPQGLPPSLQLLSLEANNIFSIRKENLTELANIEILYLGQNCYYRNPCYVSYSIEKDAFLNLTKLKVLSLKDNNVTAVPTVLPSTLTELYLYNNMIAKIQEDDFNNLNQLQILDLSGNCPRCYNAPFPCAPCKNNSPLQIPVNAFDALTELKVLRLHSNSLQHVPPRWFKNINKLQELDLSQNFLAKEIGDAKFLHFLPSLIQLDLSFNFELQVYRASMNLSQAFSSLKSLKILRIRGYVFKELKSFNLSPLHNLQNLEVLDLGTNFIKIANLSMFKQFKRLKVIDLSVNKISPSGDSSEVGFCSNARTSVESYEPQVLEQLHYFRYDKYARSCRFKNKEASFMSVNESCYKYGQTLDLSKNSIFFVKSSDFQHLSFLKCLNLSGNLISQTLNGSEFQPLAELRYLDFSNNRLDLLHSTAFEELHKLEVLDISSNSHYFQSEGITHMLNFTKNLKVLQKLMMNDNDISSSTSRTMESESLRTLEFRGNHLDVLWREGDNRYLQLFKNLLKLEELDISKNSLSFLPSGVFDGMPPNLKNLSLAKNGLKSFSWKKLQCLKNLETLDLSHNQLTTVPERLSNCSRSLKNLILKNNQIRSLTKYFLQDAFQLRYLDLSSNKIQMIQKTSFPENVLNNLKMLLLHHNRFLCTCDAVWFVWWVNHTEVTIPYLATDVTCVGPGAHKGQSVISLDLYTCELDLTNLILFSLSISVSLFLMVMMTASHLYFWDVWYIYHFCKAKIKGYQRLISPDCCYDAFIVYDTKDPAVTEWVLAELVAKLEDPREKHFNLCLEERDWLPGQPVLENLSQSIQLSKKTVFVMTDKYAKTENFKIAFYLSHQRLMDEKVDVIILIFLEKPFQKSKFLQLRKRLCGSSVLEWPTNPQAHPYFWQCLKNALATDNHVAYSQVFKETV
Procedure: HEK293 cells are detached by trypsin from the plastic surface of the culture bottle, extensively washed with calcium and magnesium-free PBS, counted and adjusted at the concentration 1×10^6 cells/tube in polypropylene V-bottomed tubes. After the final wash, the cells are pelleted and 100 μl transfection buffer (Amaxa) is added together with […], TLR7, TLR8 or TLR9-encoding and ELAM-1 promoter NF-kB luciferase reporter plasmids. The mixture thus obtained is transferred in special cuvettes and transient transfection is obtained in a special apparatus which is able to directly introduce genetic material into the nucleus (Nucleofection®, Amaxa GmbH). The cells are then recovered and cultured at 1×10^5/ml in 48-flat bottomed plates in E-MEM medium plus 5% foetal calf serum for 18 hrs. […] Finally the luciferase activity is measured in the cellular lysates by a commercial kit (Promega).

[4] = Table A, Donor #1, dose 0.085 μg/ml
[5] = Table A, Donor #1, dose 0.6 μg/ml
[6] = Table A, Donor #1, dose 2.5 μg/ml
[7] = Table A, Donor #1, dose 10 μg/ml
[8] = Table A, Donor #2, dose 0.085 μg/ml
[9] = Table A, Donor #2, dose 0.6 μg/ml
[10] = Table A, Donor #2, dose 2.5 μg/ml
[11] = Table A, Donor #2, dose 10 μg/ml
[12] = Table C, Donor #1, dose 0.085 μg/ml
[13] = Table C, Donor #1, dose 0.6 μg/ml
[14] = Table C, Donor #1, dose 2.5 μg/ml
[15] = Table C, Donor #1, dose 10 μg/ml
[16] = Table C, Donor #2, dose 0.085 μg/ml
[17] = Table C, Donor #2, dose 0.6 μg/ml
[18] = Table C, Donor #2, dose 2.5 μg/ml
[19] = Table C, Donor #2, dose 10 μg/ml
[20] = Table E, Donor #1, dose 10 μg/ml
[21] = Table E, Donor #2, dose 10 μg/ml
[22] = Table F, Donor #1, dose 10 μg/ml
[23] = Table F, Donor #2, dose 10 μg/ml

## Nc1nc(SCCCC(=O)ON2C(=O)CCC2=O)nc2c1nc(O)n2Cc1ccccc1 [SA-26E, 4-(6-Amino-9-benzyl-8-hydroxy-9H-purin-2-ylsulfanyl)-butyric acid 2,5-dioxo-pyrrolidin-1-yl ester]
[1]; 0.085 μg/ml soluble SA-26E (amount present in Conj-5, -6, -7 and -8)
  cytokine production from purified CD14+ cells (in words): not able to stimulate the production of any cytokine
[1]; [4]
  IL-6 production: 0 pg/mL
  IL-10 production: 0 pg/mL
  IL-12p40 production: 0 pg/mL
  TNF-alfa production: 0 pg/mL
[1]; [5]
  IL-6 production: 0 pg/mL
  IL-10 production: 124 pg/mL
  IL-12p40 production: 569 pg/mL
  TNF-alfa production: 345 pg/mL
[1]; [6]
  IL-6 production: 11 pg/mL
  IL-10 production: 618 pg/mL
  IL-12p40 production: 863 pg/mL
[1]; [7]
  IL-6 production: 2930 pg/mL
  IL-10 production: 609 pg/mL
  IL-12p40 production: 2500 pg/mL
  TNF-alfa production: 2123 pg/mL
[1]; [8]
  IL-6 production: 0 pg/mL
  IL-10 production: 0 pg/mL
  IL-12p40 production: 0 pg/mL
  TNF-alfa production: 0 pg/mL
[1]; [9]
  IL-6 production: 0 pg/mL
  IL-10 production: 0 pg/mL
  IL-12p40 production: 785 pg/mL
  TNF-alfa production: 466 pg/mL
[1]; [10]
  IL-6 production: 4 pg/mL
  IL-12p40 production: 2464 pg/mL
  TNF-alfa production: 1267 pg/mL
[1]; [11]
  IL-6 production: 163 pg/mL
  IL-10 production: 584 pg/mL
  IL-12p40 production: 4800 pg/mL
  TNF-alfa production: 3730 pg/mL
[1]; text to Tables A and B
  cytokine production from purified CD14+ cells (in words): intermediate effect
[2]; 0.085 μg/ml concentration
  cytokine production from BDCA4+ cells (in words): completely inactive
[2]; [12]
  IFN-alfa production: 0 pg/mL
  IL-6 production: 0 pg/mL
  TNF-alfa production: 0 pg/mL
[2]; [13]
  IFN-alfa production: 179 pg/mL
  IL-6 production: 0 pg/mL
  IL-10 production: 0 pg/mL
  TNF-alfa production: 183 pg/mL
[2]; [14]
  IFN-alfa production: 179 pg/mL
  IL-6 production: 0 pg/mL
  IL-10 production: 0 pg/mL
  TNF-alfa production: 252 pg/mL
[2]; [15]
  IFN-alfa production: 486 pg/mL
  IL-6 production: 675 pg/mL
  IL-10 production: 896 pg/mL
  TNF-alfa production: 858 pg/mL
[2]; [16]
  IFN-alfa production: 0 pg/mL
  IL-6 production: 0 pg/mL
  IL-10 production: 0 pg/mL
  TNF-alfa production: 0 pg/mL
[2]; [17]
  IFN-alfa production: 669 pg/mL
  IL-6 production: 0 pg/mL
  IL-10 production: 0 pg/mL
  TNF-alfa production: 520 pg/mL
[2]; [18]
  IFN-alfa production: 2014 pg/mL
  IL-6 production: 760 pg/mL
  TNF-alfa production: 1157 pg/mL
[2]; [19]
  IFN-alfa production: 3589 pg/mL
  IL-6 production: 1439 pg/mL
  IL-10 production: 750 pg/mL
  TNF-alfa production: 3405 pg/mL
[2]; text to Tables C and D
  cytokine production from BDCA4+ cells (in words): intermediate effect
[3]
  TLR7 activation (NF-κB luciferase) in transfected HEK293 cells: completely inactive

B1: nDer p2: purified natural allergen Der p2, major allergen from the house dust mite Dermatophagoides pteronyssinus (protein, UniProt P49278 18-146, looked up)
Mite group 2 allergen Der p 2: DQVDVKDCANHEIKKVLVPGCHGSEPCIIHRGKPFQLEAVFEANQNTKTAKIEIKASIDGLEVDVPGIDPNACHYMKCPLVKGQQYDIKYTWNVPKIAPKSENVVVTVKVMGDDGVLACAIATHAKIRD
modifications: natural purified
notes: purified natural allergen Der p2, major allergen from the house dust mite Dermatophagoides pteronyssinus
[1]; Table B, dose 10 μg/ml
  IL-6 production (mean ± SE): 0 ± 0 ng/mL
  IL-10 production (mean ± SE): 0.4 ± 0.4 ng/mL
  IL-12p40 production (mean ± SE): 0 ± 0 ng/mL
  TNF-alfa production (mean ± SE): 0.05 ± 0.06 ng/mL
[1]; [20]
  IL-6 production: 0 pg/mL
  IL-10 production: 0 pg/mL
  IL-12p40 production: 0 pg/mL
  TNF-alfa production: 218 pg/mL
[1]; [21]
  IL-6 production: 0 pg/mL
  IL-10 production: 0 pg/mL
  IL-12p40 production: 0 pg/mL
  TNF-alfa production: 0 pg/mL
[1]; text to Tables A and B
  cytokine production from purified CD14+ cells (in words): essentially unable to induce the production of valuable cytokines
[2]; Table D, dose 10 μg/ml
  IFN-alfa production (mean ± SE): 0.07 ± 0.06 ng/mL
  IL-6 production (mean ± SE): 0 ± 0 ng/mL
  IL-10 production (mean ± SE): 0 ± 0 ng/mL
  TNF-alfa production (mean ± SE): 0.03 ± 0.02 ng/mL
[2]; [22]
  IFN-alfa production: 0 pg/mL
  IL-6 production: 0 pg/mL
  IL-10 production: 0 pg/mL
  TNF-alfa production: 0 pg/mL
[2]; [23]
  IFN-alfa production: 0 pg/mL
  IL-6 production: 0 pg/mL
  IL-10 production: 0 pg/mL
  TNF-alfa production: 0 pg/mL
[3]
  TLR7 activation (NF-κB luciferase) in transfected HEK293 cells: lack any activity
